Data from patent US7732449B2, “Inhibitors of cathepsin S” (IRM LLC, priority 2003, dated 2010).
Where two headings read alike, the source gives them in different places.

Experiments:
Type in all cases: biochemical
Cathepsin S = Cathepsin S (Homo sapiens, UniProt P25774); test: Cathepsin S inhibition, fluorogenic peptide substrate kinetic assay;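 note: cleavage rate of a coumarin-labelled peptide substrate (50 µM) read as fluorescence increase at Ex 380 nm and Em 450 nm, relative to inhibitor-free control reactions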
Cathepsin K = target: T1, Cathepsin K (Homo sapiens, UniProt P43235); test: Cathepsin K inhibition, fluorogenic peptide substrate kinetic assay (selectivity); conditions: ratio of cathepsin K inhibition constant to cathepsin S inhibition constant
T1 sequence (P43235 115-329): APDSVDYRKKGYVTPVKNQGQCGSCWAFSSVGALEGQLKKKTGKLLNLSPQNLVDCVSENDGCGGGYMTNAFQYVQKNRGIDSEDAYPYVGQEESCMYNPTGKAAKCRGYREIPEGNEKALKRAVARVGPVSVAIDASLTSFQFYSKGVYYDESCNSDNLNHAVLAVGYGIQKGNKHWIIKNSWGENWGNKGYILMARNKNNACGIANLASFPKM

Cathepsin B = Cathepsin B (Homo sapiens, UniProt P07858); test: Cathepsin B inhibition, fluorogenic peptide substrate kinetic assay (selectivity); conditions: ratio of cathepsin B inhibition constant to cathepsin S inhibition constant;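 note: value is the cathepsin B inhibition constant divided by the cathepsin S one, each from kinetic fluorescence readings (ex 380 nm, em 450 nm) of a 10 µM coumarin peptide substrate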
[1] = Cathepsin S inhibition constant, pH5.5, 20 minutes preincubation at room temperature, read-out: Ki Cat. S

Sequence of Cathepsin S (P25774 115-331, species assumed): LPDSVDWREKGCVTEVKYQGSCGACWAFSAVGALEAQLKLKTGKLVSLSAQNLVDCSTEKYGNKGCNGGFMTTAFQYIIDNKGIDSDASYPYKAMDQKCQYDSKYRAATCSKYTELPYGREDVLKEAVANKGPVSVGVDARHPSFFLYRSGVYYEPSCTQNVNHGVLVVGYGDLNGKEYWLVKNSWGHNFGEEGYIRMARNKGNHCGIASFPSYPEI

Ki (Cathepsin S) [nM]	Selectivity for Cat. S over Cat. K (Cathepsin K)	Selectivity for Cat. S over Cat. B (Cathepsin B)	Ki (Cathepsin S; [1]) [nM]	SMILES
< 100				CS(=O)(=O)CC[C@@H](CNc1ccc(OC(F)(F)F)cc1)NC(=O)[C@@H](CC(=O)N1CCOCC1)CC1CCCCC1 [Example 28, 2-(R)-Cyclohexylmethyl-N-{3-methanesulfonyl-1-(S)-[(4-trifluoromethoxy-phenylamino)-methyl]-propyl}-4-morpholin-4-yl-4-oxo-butyramide]
	+ (+, >10)	+ (+, >10)	1000 to 10000	C[C@@H](CNc1nc2ccccc2s1)NC(=O)[C@H](CC1CCCCC1)NC(=O)N1CCOCC1 [Example 78, Morpholine-4-carboxylic acid {1-(S)-[2-(benzothiazol-2-ylamino)-1-(S)-methyl-ethylcarbamoyl]-2-cyclohexyl-ethyl}-amide]
	+ (+, >10)	+ (+, >10)	< 100	CC[C@@H](CNc1ccc(OC(F)(F)F)cc1)NC(=O)[C@H](CC1CCCCC1)NC(=O)N1CCOCC1 [Example 75, Morpholine-4-carboxylic acid (2-cyclohexyl-1(S)-{1-(S)-[(4-trifluoromethoxy-phenylamino)-methyl]-propylcarbamoyl}-ethyl)-amide]
	+ (+, >10)	+ (+, >10)	1000 to 10000	C[C@@H](CNc1nc2ccccc2o1)NC(=O)[C@H](CC1CCCCC1)NC(=O)N1CCOCC1 [Example 79, Morpholine-4-carboxylic acid {1-(S)-[2-(benzooxazol-2-ylamino)-1-(S)-methyl-ethylcarbamoyl]-2-cyclohexyl-ethyl}-amide]
< 100				CC(C)[C@@H](CNc1ccc(OC(F)(F)F)cc1)NC(=O)[C@H](CCCc1ccccc1)CC(=O)N1CCOCC1 [Example 30, 2-(R)-(2-Morpholin-4-yl-2-oxo-ethyl)-5-phenyl-pentanoic acid {2-methyl-1-(S)-[(4-trifluoromethoxy-phenylamino)-methyl]-propyl}-amide]
< 100	+ (+, >10)	++ (++, >100)		O=C(N[C@@H](CCc1ccccc1)CNc1ccc(OC(F)(F)F)cc1)[C@@H](CC(=O)N1CCOCC1)CC1CCCCC1 [Example 23, 2-(R)-Cyclohexylmethyl-4-morpholin-4-yl-4-oxo-N-{3-phenyl-1-(S)-[(4-trifluoromethoxy-phenylamino)-methyl]-propyl}-butyramide]
	+ (+, >10)	+ (+, >10)	1000 to 10000	C[C@@H]1CN(C(=O)[C@H](CC2CCCCC2)OC(=O)N[C@@H](C)CN2c3ccc(F)cc3CC2(C)C)C[C@H](C)O1 [Example 93, [2-(5-Fluoro-2,2-dimethyl-2,3-dihydro-indol-1-yl)-1-(S)-methyl-ethyl]-carbamic acid 1-(S)-cyclohexylmethyl-2-(2,6-cis-dimethyl-morpholin-4-yl)-2-oxo-ethyl ester]
< 100				CC(C)[C@@H](CNc1ccc(OC(F)(F)F)cc1)NC(=O)[C@@H](CC(=O)N1CCOCC1)CC1CCCC1 [Example 31, 2-(R)-Cyclopentylmethyl-N-{2-methyl-1-(S)-[(4-trifluoromethoxy-phenylamino)-methyl]-propyl}-4-morpholin-4-yl-4-oxo-butyramide]
< 100				CS(=O)(=O)CC[C@H](CNc1ccc(OC(F)(F)F)cc1)NC(=O)[C@@H](CC(=O)N1CCOCC1)CC1CCCCC1 [Example 29, 2-(R)-Cyclohexylmethyl-N-{3-methanesulfonyl-1-(R)-[(4-trifluoromethoxy-phenylamino)-methyl]-propyl}-4-morpholin-4-yl-4-oxo-butyramide]
< 100				O=C(N[C@@H](CCc1ccccc1)CNc1ccc(OC(F)(F)F)cc1)[C@@H](CC(=O)N1CCOCC1)c1ccccc1 [Example 40, 4-Morpholin-4-yl-4-oxo-2-(S)-phenyl-N-{3-phenyl-1-(S)-[(4-trifluoromethoxy-phenylamino)-methyl]-propyl}-butyramide]
		+ (+, >10)	1000 to 10000	C[C@@H](CN1CC(C)(C)c2cc(F)ccc21)NC(=O)[C@@H](CC(=O)N1CCOCC1)c1ccc(C(F)(F)F)cc1 [Example 66, N-[2-(5-Fluoro-3,3-dimethyl-2,3-dihydro-indol-1-yl)-1-(S)-methyl-ethyl]-4-morpholin-4-yl-4-oxo-2-(S)-(4-trifluoromethyl-phenyl)-butyramide]
	+ (+, >10)	+ (+, >10)	< 100	CS(=O)(=O)CC[C@@H](CNc1ccc(OC(F)(F)F)cc1)NC(=O)[C@H](CC1CCCCC1)NC(=O)N1CCOCC1 [Example 74, Morpholine-4-carboxylic acid (2-cyclohexyl-1-(S)-{3-methanesulfonyl-1-(S)-[(4-trifluoromethoxy-phenylamino)-methyl]-propylcarbamoyl}-ethyl)-amide]
< 100				CC(C)[C@@H](CNc1ccc(OC(F)(F)F)cc1)NC(=O)[C@H](CCC1CCCC1)CC(=O)N1CCOCC1 [Example 33, 2-(R)-(2-Cyclopentyl-ethyl)-N-{2-methyl-1-(S)-[(4-trifluoromethoxy-phenylamino)-methyl]-propyl}-4-morpholin-4-yl-4-oxo-butyramide]
			< 100	C[C@@H](CNc1ccc(OC(F)(F)F)cc1)NC(=O)[C@H](CSCc1ccccc1)NC(=O)N1CCOCC1 [Example 17, Morpholine-4-carboxylic acid {2-benzylsulfanyl-1-(R)-[1-(S)-methyl-2-(4-trifluoromethoxy-phenylamino)-ethylcarbamoyl]-ethyl}-amide]
		+ (+, >10)	1000 to 10000	O=C(NCCN1CCc2cc(F)ccc21)[C@H](CC1CCCCC1)OC(=O)N1CCOCC1 [Example 1, Morpholine-4-carboxylic acid (S)-2-cyclohexyl-1-[2-(5-fluoro-2,3-dihydro-indol-1-yl)-ethylcarbamoyl]-ethyl ester]
< 100		+++ (+++, >1000)		CC[C@@H](CNc1ccc(OC(F)(F)F)cc1)NC(=O)[C@H](CCc1ccccc1)CC(=O)N1CCOCC1 [Example 38, 4-Morpholin-4-yl-4-oxo-2-(R)-phenethyl-N-{1-(S)-[(4-trifluoromethoxy-phenylamino)-methyl]-propyl}-butyramide]
	+ (+, >10)	+ (+, >10)	100 to 1000	CC(C)[C@@H](CNc1cccnc1)NC(=O)[C@H](CC1CCCCC1)NC(=O)N1CCOCC1 [Example 76, Morpholine-4-carboxylic acid {2-cyclohexyl-1-(S)-[2-methyl-1-(S)-(pyridin-3-ylaminomethyl)-propylcarbamoyl]-ethyl}-amide]
100 to 1000				O=C(N[C@H](CNc1ccc(OC(F)(F)F)cc1)c1ccccc1)[C@@H](CC(=O)N1CCOCC1)c1ccccc1 [Example 44, 4-Morpholin-4-yl-4-oxo-2-(S)-phenyl-N-[1-(S)-phenyl-2-(4-trifluoromethoxy-phenylamino)-ethyl]-butyramide]
< 100				CC(C)[C@@H](CNc1ccc(OC(F)(F)F)cc1)NC(=O)[C@@H](CC(=O)N1CCOCC1)CC1CCCCC1 [Example 24, 2-(R)-Cyclohexylmethyl-N-{2-methyl-1-(S)-[(4-trifluoromethoxy-phenylamino)-methyl]-propyl}-4-morpholin-4-yl-4-oxo-butyramide]
